{"source": "patent US20100069335A1", "about": "“Prevention and Treatment of Ophthalmic Complications of Diabetes” (priority 2005, published 2010)", "key": {"[1]": {"system": "Human lens epithelial cells (HLEC)", "assay": "Viability of human lens epithelial cells subjected to glucose-induced toxicity (Trypan Blue)", "format": "cell-based", "settings": "50 mM glucose; 4 mM MSM, 0.5 mM EDTA; 16 hrs; glucose alone decreased viability by 30%", "experimental": "Cell Culture and Treatment. Human lens epithelial […] extended life span were cultured in DMEM medium containing 0.1% gentamicin and supplemented with 20% fetal bovine serum at 37° C. in a 5% CO2-humidified atmosphere. 1.0×10^5 […] (Passage 5) were seeded in 12-well plate overnight prior to the addition of glucose, MSM or MSM/EDTA. The wells were divided into six groups of two wells. Cell viability. Cell survival was determined by Trypan Blue staining and counted with a hemocytometer. Dead cells stain blue, while live cells exclude Trypan Blue. Cell viability is represented as a percentage corresponding to the number of live cells divided by the total cells. […] DMEM+20% FBS+0.1% gentamicin • 400 mM MSM: 376 mg/10 ml PBS for stock • 50 mM EDTA (Tetrasodium Salt): 190 mg/10 ml PBS for stock, pH 7.2 • 5 M Glucose: 1800 mg/10 ml of dd H2O Experimental Procedure. 1. Seeded 0.5×10^5/ml of HLEC (Passage 5) into three 12-well plates, then incubated at 37° C. overnight. 2. Changed medium to 2% FBS DMEM medium. 3. […] They were harvested with 0.25% Trypsin-EDTA and cell viability was determined with Trypan-Blue."}, "[2]": {"settings": "at 79° F.; cited from earlier work"}, "[3]": {"system": "rat lens organ culture", "assay": "Glucose-induced toxicity in rat lens organ culture (RLCE)", "format": "cell-based", "settings": "50 mM glucose, 4 mM MSM, 0.5 mM EDTA", "experimental": "Animals. Male Sprague-Dawley rats weighing 200-250 g were obtained from Central Animal Care Services at the University of Texas Medical Branch. The NIH guidelines and ARVO statement for the Use of Animals in Ophthalmic and Vision Research were strictly followed for the welfare of the animals. Rats were sacrificed with using 100% carbon dioxide at a low flow rate (25-30% of the volume of the cage per minute) with two rats in a cage. After the rats stopped breathing for about 2 minutes, the eyeballs were removed. […] Experimental Procedure. 1. Sacrificed four rats, removed the eyeballs as soon as possible and put them into a tube containing PBS with 0.1% gentamicin. 2. Dissected the lenses immediately and washed with 1% penicillin/streptomycin in sterile with PBS. 3. Transferred each lens to a well of a 12-well plate (2 ml of medium per well, i.e., per lens). Each treatment was performed in 2 wells. The lenses were cultured in medium 199 containing 0.1% gentamicin at 37° C. in a 5% CO2 humidified atmosphere. Reagents as described above were added to three groups of two wells to give the following three treatments: • 50 mM glucose • 50 mM glucose+4 mM MSM • 50 mM glucose+4 mM MSM+0.5 mM EDTA One group of two wells was left untreated as a control. […] Photographs were taken using a Multidimensional Imaging System, and the level of light transparency through the lenses was determined"}}}
{"smiles": "CS(C)(=O)=O", "note": "[MSM, methylsulfonylmethane]", "values": [{"measurement": "percent cell viability (FIG. 6)", "setting": "[1]", "value": "increased the percent cell viability"}, {"measurement": "water solubility", "setting": "[2]", "value": 34, "unit": "% w/v"}, {"measurement": "lens opacification by glucose (photographs, FIG. 2)", "setting": "[3]; seven days of culture", "value": "mitigated lens opacification"}, {"measurement": "light transmission through the lens, relative to the untreated control (FIG. 3)", "setting": "[3]; seven days, glucose alone 45%", "value": 68, "unit": "%"}]}
